The results in this text go back to article PMC4269550, “Lead Optimization of a Pyrazole Sulfonamide Series of Trypanosoma bruceiN-Myristoyltransferase Inhibitors: Identification and Evaluation of CNS Penetrant Compounds as Potential Treatments for Stage 2 Human African Trypanosomiasis” (Journal of Medicinal Chemistry, 2014).

Data set [1] has as its system MRC5, human lung fibroblast cells. Briefly: in vitro. It is filed as cell-based.
The target of a further data set is T1, TbNMT (Trypanosoma brucei brucei, UniProt Q388H8).
T1 sequence (Q388H8 1-446): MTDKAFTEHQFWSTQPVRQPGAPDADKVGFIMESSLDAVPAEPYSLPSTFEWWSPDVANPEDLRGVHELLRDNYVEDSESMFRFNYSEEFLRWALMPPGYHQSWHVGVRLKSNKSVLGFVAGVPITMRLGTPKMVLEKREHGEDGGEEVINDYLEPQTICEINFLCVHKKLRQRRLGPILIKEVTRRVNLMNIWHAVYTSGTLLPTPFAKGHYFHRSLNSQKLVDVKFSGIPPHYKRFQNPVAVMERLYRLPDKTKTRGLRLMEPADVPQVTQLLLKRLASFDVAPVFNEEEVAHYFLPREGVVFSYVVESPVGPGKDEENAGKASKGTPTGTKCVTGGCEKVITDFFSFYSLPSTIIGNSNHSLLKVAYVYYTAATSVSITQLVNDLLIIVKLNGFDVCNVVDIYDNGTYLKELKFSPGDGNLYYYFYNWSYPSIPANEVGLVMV
Briefly: NMT enzyme inhibition scintillation proximity assay (TbNMT). Type of data set: biochemical, T. brucei. (In general: Scintillation proximity formats need no separation of bound from free tracer.)

Data set [2] relates to T. b. brucei, BSF427, VSG118. The data set can be described thus: Cell viability assay, trypanosome. It is filed as cell-based.
In another data set the test system is HsNMT. It is filed as biochemical, human. The settings on record: for pIC50: mean of two or more determinations.
A short description of data set [3]: In vitro metabolite identification with mouse microsomes. Type of data set: in vitro ADME. The settings on record: for % Parent remaining (t = 15 min): 5µM, 15 min at 37°C, mouse liver microsomes; for sulfonamide N-dealkylation on incubation with mouse microsomes: words. Background: Liver microsomes are vesicles of endoplasmic reticulum, rich in cytochrome P450 enzymes.

Data set [4] in a line: Intrinsic clearance (Cli), mouse liver microsomes. Type of data set: in vitro ADME. The settings on record: for Cli: mouse microsomes.
A short description of the next data set: in vitro. The settings on record: human; read-out: MRC-5 EC50. Type of data set: cell-based, human.
A further data set is described as follows: Mouse pharmacokinetics. It is filed as in vivo. The settings on record: words. The procedure:
Test compound was dosed as a bolus solution intravenously at 3 mg free base/kg (dose volume, 5 mL/kg; dose vehicle, saline or 5% DMSO; 40% PEG400; 55% saline) to female NMRI mice (n = 3) or dosed orally by gavage as a solution at 10 and/or 50 mg free base/kg (dose volume, 5 mL/kg; dose vehicle, 5% DMSO; 95% distilled water or 5% DMSO; 40% PEG400; 55% distilled water) to female NMRI mice (n = 3/dose level). Female NMRI mice were chosen as these represent the sex and strain used for the stage 1 and stage 2 HAT efficacy models. Blood samples were taken from each mouse at 2 (IV only), 5 (IV only), 15, and 30 min, 1, 2, 4, 6, 8, and 24 (po only) hours postdose and mixed with two volumes of distilled water. After suitable sample preparation, the concentration of test compound in blood was determined by UPLC-MS/MS using a Quattro Premier XE (Waters, USA). Pharmacokinetic parameters were derived from the mean blood concentration time curve using PKsolutions software v 2.0 (Summit Research Services, USA).

[5] abbreviates: mean of two or more determinations, read-out: TbNMT IC50.

pEC50, pIC50: −log10 of the molar value. Read-outs that look alike come from different tables or passages of the source.

Take `Cc1nn(C)c(C)c1N(C(F)F)S(=O)(=O)c1c(Cl)cc(CCCOC2CC3CCC(C2)N3C)cc1Cl` (stereo not shown) [compound 71]: the negative logarithm of the EC50 (pEC50) – broadly, −log10 of the EC50, conventionally taken in molar units – in data set [1] is 5.82; in data set [2], 8.00. Moreover, the pIC50 (commonly the negative decadic logarithm of the IC50, by convention in mol/L) at TbNMT (setting [5]) is 8.70; with HsNMT it was 7.21. For the same compound, the “S = IC50 HsNMT/EC50 T. brucei” value in the data set on HsNMT (selectivity) was 6.

Consider `Cc1nn(C)c(C)c1N(C(F)F)S(=O)(=O)c1c(Cl)cc(CCCOC[C@H]2CCCCN2)cc1Cl` [compound 89], for which the pEC50 in data set [1] is 5.30; in data set [2], 7.07. The values for the pIC50 at TbNMT (setting [5]) and in the data set on HsNMT were 8.15 and 6.24, respectively. The “S = IC50 HsNMT/EC50 T. brucei” value in the data set on HsNMT (selectivity) amounted to 7.

On to `Cc1nn(C)c(C)c1N(C)[S+](=O)([O-])c1c(Cl)cc(CCCC2CCN(C)CC2)cc1Cl` [compound 37], for which, in data set [3], the “% Parent remaining (t = 15 min)” value amounted to 25% and the “sulfonamide N-dealkylation on incubation with mouse microsomes” value (“sulfonamide N-dealkylation on incubation” below) is listed as “N-dealkylated sulfonamide as the predominant metabolite”. Also, the “Cli (mouse)” value in data set [4] (mouse liver microsomes) is 7.3 mL min^–1 g^–1. The Cli in data set [4] is listed as 7.3 mL/min/g. For the same compound, the pEC50 in the data set “in vitro” was 5.96.

For the compound `CCN(c1c(C)nn(C)c1C)S(=O)(=O)c1c(Cl)cc(CCCN2CCN(C)CC2)cc1Cl` [compound 34], in data set [3], the “% Parent remaining (t = 15 min)” value was 37% and the “sulfonamide N-dealkylation on incubation” value is on record as “N-dealkylated sulfonamide as the predominant metabolite”. In data set [4] (mouse liver microsomes), the “Cli (mouse)” value stood at 3.1 mL min^–1 g^–1. In addition, the Cli in data set [4] is 3.1 mL/min/g. In “Mouse pharmacokinetics”, the “oral exposure in mouse” value is “poor oral exposure”.

Consider `Cc1nn(C)c(C)c1N(C(F)F)S(=O)(=O)c1c(Cl)cc(CCCOC2CCC(N(C)C)CC2)cc1Cl` (stereo not shown) [compound 76], for which the pEC50 in data set [1] is 6.24; in data set [2] it was 8.52. Also, the negative logarithm of the IC50 (pIC50) was 8.70 at TbNMT (setting [5]) and 8.30 with HsNMT. The “S = IC50 HsNMT/EC50 T. brucei” value in the data set on HsNMT (selectivity) came to 2.

Take `Cc1nn(C)c(C)c1N(C(F)F)S(=O)(=O)c1c(Cl)cc(CCCCCCn2ccnc2C(C)C)cc1Cl` [compound 70]: the values for the pEC50 (in the data set “in vitro”; in data set [2] (Trypanosoma brucei)) were 5.44 and 6.57, respectively. Also, the pIC50 at TbNMT is 7.60; with HsNMT, 6.30. In addition, the “S = IC50 HsNMT/EC50 T. brucei” value in the data set on HsNMT was determined as 2.

Regarding `Cc1nn(C)c(C)c1NS(=O)(=O)c1c(F)cc(-c2ccnc(N3CCNCC3)c2)cc1F` [compound 59], the “Cli (mouse)” value in data set [4] (Table S1, unit not given) is given as less than 0.5. The pEC50 in data set [1] was 5.33; in data set [2] it was 8.30. Further, the pIC50 on TbNMT (setting [5]) is 8.40.

As to `Cc1nn(C)c(C)c1NS(=O)(=O)c1ccc(-c2ccnc(N3CCNC(c4ccccc4)C3)c2)cc1` (stereo not shown) [compound 61], the negative-log EC50 (pEC50) in the data set “in vitro” was less than 4.30; in data set [2] (Trypanosoma brucei), less than 5.00. Also, the pIC50 at TbNMT is 6.10; in the data set with HsNMT, 5.61. The “S = IC50 HsNMT/EC50 T. brucei” value in the data set on HsNMT (selectivity) was less than 1.

Take `Cc1nn(C)c(C)c1N(C(F)F)S(=O)(=O)c1c(Cl)cc(CCCOC[C@@H]2CCCCN2)cc1Cl` [compound 88]: the negative-log EC50 (pEC50) in data set [1] was 5.28; in data set [2] it was 7.06. Moreover, the pIC50 is 8.15 at TbNMT (setting [5]) and 6.08 with HsNMT. Moreover, the “S = IC50 HsNMT/EC50 T. brucei” value in the data set with HsNMT (selectivity) is listed as 10.

For `Cc1nn(C)c(C)c1N(C(F)F)S(=O)(=O)c1c(Cl)cc(CCCOC[C@@H]2CCCN2)cc1Cl` [compound 86], the pEC50 is 5.48 in data set [1] and 8.22 in data set [2]. Moreover, the pIC50 at TbNMT (setting [5]) is 8.70; in the data set with HsNMT, 6.96. The “S = IC50 HsNMT/EC50 T. brucei” value in the data set on HsNMT (selectivity) worked out at 18.

For `Cc1nn(C)c(C)c1N(C(F)F)S(=O)(=O)c1c(Cl)cc(CCCCCCN(C)C(C)C)cc1Cl` [compound 84], the figures for the negative-log EC50 (pEC50) in data set [1] and in data set [2] were 5.29 and 7.42, respectively. In addition, the results for the pIC50 at TbNMT (setting [5]) and in the data set with HsNMT were 8.52 and 6.74, respectively. For the same compound, the “S = IC50 HsNMT/EC50 T. brucei” value in the data set on HsNMT (selectivity) came to 5.

Take `Cc1nn(C)c(C)c1NS(=O)(=O)c1ccc(-c2ccnc(N3CCNC(Cc4ccccc4)C3)c2)cc1` (stereo not shown) [compound 64]: the negative logarithm of the EC50 (pEC50) is less than 4.30 in “in vitro” and less than 5.00 in data set [2] (Trypanosoma brucei). Further, the pIC50 at TbNMT is 6.96; with HsNMT it was 5.82. For the same compound, in the data set on HsNMT (selectivity), the “S = IC50 HsNMT/EC50 T. brucei” value was less than 1.

In data set [1], `Cc1nn(C)c(C)c1N(C(F)F)S(=O)(=O)c1c(Cl)cc(CCCOC[C@H]2CCCN2)cc1Cl` [compound 87] had a negative logarithm of the EC50 (pEC50) of 5.49. Also, the negative-log IC50 (pIC50) is 8.52 at TbNMT (setting [5]) and 7.48 in the data set on HsNMT. For the same compound, the “S = IC50 HsNMT/EC50 T. brucei” value with HsNMT (selectivity) is given as 7.

Turning to `Cc1nn(C)c(C)c1N(C(F)F)S(=O)(=O)c1c(Cl)cc(CCCCCCn2ccnc2)cc1Cl` [compound 67], the figures for the pEC50 (in “in vitro”; in data set [2] (Trypanosoma brucei)) were 5.14 and 7.46, respectively. In addition, the negative-log IC50 (pIC50) against TbNMT is 8.30; with HsNMT, 6.85. Moreover, the “S = IC50 HsNMT/EC50 T. brucei” value in the data set on HsNMT is on record as 4.

`Cc1nn(C)c(C)c1N(C(F)F)S(=O)(=O)c1c(Cl)cc(CCCN2CCN3CCC[C@@H]3C2)cc1Cl` [compound 53]: the “Cli (mouse)” value in data set [4] (mouse liver microsomes) turned out to be 15 mL min^–1 g^–1. The compound also displayed a Cli in data set [4] of 15 mL/min/g. For the same compound, the “oral exposure in mouse” value in “Mouse pharmacokinetics” is recorded as “no improvement to oral exposure”.

As to `Cc1nn(C)c(C)c1N(C(F)F)S(=O)(=O)c1c(Cl)cc(CCCCCCN2CCOCC2)cc1Cl` [compound 79], the negative logarithm of the EC50 (pEC50) in data set [1] is 4.91; in data set [2], 6.49. For the same compound, the pIC50 on TbNMT (setting [5]) is 7.26.

Turning to `CCN(c1c(C)nn(C)c1C)[S+](=O)([O-])c1c(Cl)cc(CCCC2CCN(C)CC2)cc1Cl` [compound 39], in data set [3], the “% Parent remaining (t = 15 min)” value worked out at 52% and the “sulfonamide N-dealkylation on incubation” value is reported as “N-dealkylated sulfonamide as the predominant metabolite”. Also, the “Cli (mouse)” value in data set [4] (mouse liver microsomes) is on record as 12 mL min^–1 g^–1. Moreover, in the data set “in vitro”, the pEC50 was 5.66.

For `Cc1nn(C)c(C)c1N(C(F)F)S(=O)(=O)c1c(Cl)cc(CCCOC2CC(C)(C)N(C)C(C)(C)C2)cc1Cl` [compound 75], the pEC50 is 5.28 in data set [1] and 7.19 in data set [2]. The pIC50 is 8.00 on TbNMT (setting [5]) and 5.77 in the data set with HsNMT. The “S = IC50 HsNMT/EC50 T. brucei” value in the data set with HsNMT (selectivity) was found to be 27.

Regarding `CCN(CC)CCCCCCc1cc(Cl)c(S(=O)(=O)N(c2c(C)nn(C)c2C)C(F)F)c(Cl)c1` [compound 81], the pEC50 in data set [1] is 5.54; in data set [2], 7.85. Further, the values for the pIC50 at TbNMT (setting [5]) and in the data set on HsNMT were 8.52 and 7.38, respectively. Moreover, the “S = IC50 HsNMT/EC50 T. brucei” value with HsNMT (selectivity) was found to be 3.
